These results are taken from patent publication US20240189279A1, “IMMUNOMODULATORY COMPOSITIONS AND METHODS OF USE THEREOF” (THE TEXAS A&M UNIVERSITY SYSTEM, priority 2022, published 2024).

“Also recorded” adds a separate entry of the source.

The subject of one experiment is liver bile acids. The experiment is described as follows: Liver bile acid analysis (targeted LC-MS) in WD mice. In kind it is in vivo, mice (male B6 129SF1/J). From the text: Animal experiments. Male B6 129SF1/J mice at 6 weeks of age were obtained from Jackson Laboratories (Bar Harbor, ME). Mice were acclimatized to the animal facility for one week. At the start of the experiment, mice were randomly divided into four groups (n=10 for each group). Three of the four groups were fed ad libitum a Western diet (WD) with 40% Kcal from fat and containing 0.15% cholesterol (D12079B, Research Diets) and a sugar water (SW) solution (23.1 g/L d-fructose+18.9 g/L d-glucose) as previously described (DIAMOND model (15)). After 8 weeks, the three groups of WD-fed mice were randomly selected for treatment with vehicle (WD group) or low (WD-50 group) or high dose (WD-100 group) of […]. The WD group was fed WD and drank sugar water. The WD-50 and WD-100 groups were fed WD and drank sugar water containing, respectively, 50 or 100 mg […] per kg body weight. The treatments were continued for another 8 weeks. Water bottles containing SW and […] or only SW were changed every other day. A fourth group of mice was fed a low-fat control diet (D12450B, Research Diets) and normal water for 16 weeks (CN group) (FIG. 9A). FIG. 9A presents the study design. […] The supernatant was transferred into a new sample tube and analyzed by LC-MS. […] The calculated bile acid concentrations were normalized to the level of spiked internal standard for each sample.

For experiment [1], the system named is fatty acid metabolism enzymes in liver. As to the kind of experiment: Liver targeted proteomics of fatty acid metabolism and antioxidant enzymes in WD mice. In kind it is in vivo, mice (male B6 129SF1/J). The source says:
Animal experiments. Male B6 129SF1/J mice at 6 weeks of age were obtained from Jackson Laboratories (Bar Harbor, ME). Mice were acclimatized to the animal facility for one week. At the start of the experiment, mice were randomly divided into four groups (n=10 for each group). Three of the four groups were fed ad libitum a Western diet (WD) with 40% Kcal from fat and containing 0.15% cholesterol (D12079B, Research Diets) and a sugar water (SW) solution (23.1 g/L d-fructose+18.9 g/L d-glucose) as previously described (DIAMOND model (15)). After 8 weeks, the three groups of WD-fed mice were randomly selected for treatment with vehicle (WD group) or low (WD-50 group) or high dose (WD-100 group) of […]. The WD group was fed WD and drank sugar water. The WD-50 and WD-100 groups were fed WD and drank sugar water containing, respectively, 50 or 100 mg […] per kg body weight. The treatments were continued for another 8 weeks. Water bottles containing SW and […] or only SW were changed every other day. A fourth group of mice was fed a low-fat control diet (D12450B, Research Diets) and normal water for 16 weeks (CN group) (FIG. 9A). FIG. 9A presents the study design. Mice belonging to the same treatment group were housed together (5 mice/cage). Mice were maintained on 12:12-h light-dark cycles. All procedures were performed in accordance with Texas A&M University Health Sciences Center Institutional Animal Care and Use Committee guidelines under an approved animal use protocol (AUP #2017-0145). Targeted proteomics. A panel of 15 proteins having differential abundance in the untargeted proteomics data were selected for targeted measurements using product ion scans for representative peptides (Table 7). The relative abundance of a target protein was determined by quantifying the corresponding peptide peak's AUCs in MultiQuant and normalizing the value by the sample protein weight.

Consider `O=C([O-])Cc1c[nH]c2ccccc12.[Na+]` [I3A, Indole-3-acetate sodium salt], for which the “liver bile acid profile” value with liver bile acids (WD-50 group vs WD) is on record as “did not show any significant changes in liver bile acid profile”. The “liver total bile acids and primary bile acids” value with liver bile acids (WD-100 group vs WD (WD: reduced total, increased primary bile acids)) is “showed the opposite trend”. Also, the “decrease of Fasn in liver” value in experiment [1] (I3A treated vs WD) came to 86%. The “abundance of antioxidant enzymes catalase (CatB) and glutathione peroxidase 1 (Gpx1) in liver” value in experiment [1] (I3A treatment, WD-50 and WD-100) is listed as “dose-dependent decrease”. For the same compound, in experiment [1] (WD-100 group vs WD), the “abundance of acetyl-CoA carboxylase-2 (Acab) in liver” value is listed as “not significantly different”; the “abundance of fatty acid synthase (Fasn) in liver” value is “decreased in the WD-100 group compared to the WD group”; the “abundance of mitochondrial β-oxidation enzymes Acadl, Acadm, Acads and Hadh in liver” value was “significantly decreased in the WD-100 group compared to WD”; the “abundance of peroxisomal β-oxidation enzymes Acox1, Acaala and Acaalb in liver” value is on record as “A similar trend was observed”. For the same compound, the “abundance of CD36 in liver” value in experiment [1] (WD-100 group vs WD, sodium salt) is recorded as “did not affect CD36 abundance; also recorded: decreased, but not significantly”.
